The subject of the assay is HCVpp. The conditions noted are these: 25 μM AZT before and during infection; Huh-7.

Experimental: HCVpp were treated with 25 μM AZT (3′-azido-3′-deoxythymidine; Sigma-Aldrich, France) before and during infection of target cells (lane j).

In the case of `Cc1cn([C@H]2C[C@H](N=[N+]=[N-])[C@@H](CO)O2)c(=O)[nH]c1=O` [AZT, 3′-azido-3′-deoxythymidine], the effect on transduction entry is listed as “inhibited transduction”.
